Data set [1] relates to rat mast cells stimulated with concanavalin A and sensitized with immunoglobulin E. Further details: method as in PMID 2453615. Conditions: cited from earlier work.
For data set [2], the system named is Leishmania (L.) infantum (MHOM/BR/74/PP75) promastigotes. The data set is described as follows: Anti-promastigote activity, MTT colorimetric assay. The class given is cell-based. The procedure:
(§1) Promastigotes of Leishmania (V.) braziliensis (MHOM/BR/75/M2903) and Leishmania (L.) infantum (MHOM/BR/74/PP75) were grown in a biphasic medium. The solid phase was composed of Nicolle–Novy–MacNeals (NNN) medium with 15% defibrillated rabbit blood. Already in the liquid phase, we employed Roswell Park Memorial Institute (RPMI)-1640 (Sigma-Aldrich, St. Louis, USA) or Liver Infusion Tryptose (LIT) medium with 15% fetal bovine serum (Gibco – Thermo Fisher Scientific, Waltham USA), both supplemented with 1% of penicillin-streptomycin antibiotic solutions (10.000 U/mL of penicillin and 10.000 μg/mL of streptomycin; Gibco – Thermo Fisher Scientific, Waltham, USA). Cultures were maintained in an incubator at 25°C until parasites reached logarithmic phase (4 days). Next, the cultures were centrifuged and the pellet was suspended in RPMI-1640 or LIT for counting promastigotes using a Neubauer hemocytometer under an optical microscope (Axiostar Plus Carl Zeiss, Jena, Germany) at 400x magnification. Subsequently, parasites were diluted in RPMI-1640 or LIT medium at a final concentration of 1 x 10^6parasites/mL for use in antileishmanial assays.
(§2) The 50% inhibitory concentration (IC50) against L. (V.) braziliensis and L. (L.) infantum was evaluated by determination of the parasite viability using the colorimetric 3-(4,5-dimethylthiazol-2-yl)-2,5-diphenyltetrazolium bromide (MTT) method.[19] Initially, 100 μL of the promastigote suspension prepared in RPMI-1640 or LIT medium (1 × 10^6cells/mL) was added in each well of the 96-well microplate. Parasites were then treated with two-fold serial dilutions (from 3.12 to 400 µg/mL) of Bex-derived analogs prepared in 10% dimethyl sulfoxide (DMSO) (Sigma-Aldrich, St. Louis, USA) and the microplates were incubated at 25°C for 48 h. Next, 20 μL of MTT solution at 5 mg/mL (Sigma-Aldrich, St. Louis, USA) was added to the parasite cultures and the plates were covered with laminated paper and incubated at 37°C for 4 h. Finally, the plates were centrifuged at 1500 rpm for 15 min at 4°C (Heraeus-Megafuge 11R Centrifuge - Thermo Fisher Scientific, Waltham USA) and the formazan crystals formed were dissolved by the addition of 200 μL 10% DMSO. After further incubation for 5 min at room temperature, absorbance at 570 nm of samples measured using a microplate reader (Metller Toledo, Brazil). Meglumine antimoniate (Glucantime®Sanofi-aventis, France) and amphotericin B (Eurofarma, Brazil) were included as positive controls, and 10% DMSO solution was used as a solvent control. Samples containing RPM1-1640 or LIT only were used to control the sterility of media and samples containing inoculum and medium, but not compounds, were employed as growth controls.
A general note: Tetrazolium assays rely on reduction of a dye to a coloured formazan, in cell work by metabolically active cells.

Data set [3] relates to Leishmania (V.) braziliensis (MHOM/BR/75/M2903) promastigotes. As to the kind of experiment: Anti-promastigote activity, MTT colorimetric assay. Type of data set: cell-based. How it is done: as §1, §2
Data set [4] in a line: Cytotoxicity, MTT assay. Type of data set: cell-based. Conditions: hamster spleen cells, 48 h exposure. How it is done: Hamster spleen cells were used to test cytotoxicity. The cells were kindly provided by Dr. Rosy Iara Maciel de Azambuja Ribeiro from of Laboratory of Experimental Pathology/UFSJ. The cells were cultivated in saline solution (NaCl 0.9%; Synth, Brazil) and maintained at 37°C in an incubator with an atmosphere containing 5% CO2 (Thermo Fisher Scientific, Waltham, USA).
Cytotoxic concentration determinations for 50% of the cells in culture (CC50) were evaluated by using the colorimetric 3-(4,5-dimethylthiazol-2-yl)-2,5-diphenyltetrazolium bromide (MTT) method, following protocols outlined in a previous study.[19] Briefly, spleen cells were exposed for 48h to several concentrations of compounds (3, 6.25, 12.5, 25, 50, 100, 200, 400 and 800 µg/mL) and, afterward, the MTT assay was used to quantify the cell viability as was done using the anti-promastigote assay. Finally, CC50 values were calculated by linear regression analysis of absorbance values obtained previously.[20]
The selectivity of Bex analogs and antileishmanial agents was determined to evaluate the safety of compounds. Thus, the selectivity index (SI) was calculated through the ratio between the CC50 of compounds against the hamster spleen cells and the geometric mean (GM) of IC50 values calculated for L. (V.) braziliensis and L. (L.) infantum.[21] In the case where CC50 was higher than the highest concentration tested of the compound, to calculate the SI, the value used was 400. The larger SI was indicative of a safer molecule.

The test system of data set [5] is reverse transcriptase from human immunodeficiency virus(HIV). Conditions: cited from earlier work.
Data set [6] deals with Streptococcus mutans. Further details: method as in PMID 16042337. Conditions: microdilution broth assays; cited from earlier work. For orientation: In broth dilution the organism is exposed to a series of concentrations in liquid medium.
Data set [7] deals with Escherichia coli. Also noted: method as in PMID 16042337. Conditions: microdilution broth assays; cited from earlier work.
Data set [8] deals with Staphylococcus aureus. Also noted: method as in PMID 16042337. Conditions: microdilution broth assays; cited from earlier work.
Setting [9] is: promastigotes, LIT medium, 48 h, 25°C, MTT, read-out: IC50 L. infantum LIT.
Where [10] appears, read: promastigotes, RPMI-1640 medium, 48 h, 25°C, MTT, read-out: IC50 L. infantum RPMI-1640.
Where [11] appears, read: promastigotes, LIT medium, 48 h, 25°C, MTT, read-out: IC50 L. braziliensis LIT.
Where [12] appears, read: promastigotes, RPMI-1640 medium, 48 h, 25°C, MTT, read-out: IC50 L. braziliensis RPMI-1640.
[13] abbreviates: geometric mean of IC50 in LIT and RPMI-1640, read-out: GM (geometric mean of IC50 values) L. infantum.
Where [14] appears, read: geometric mean of IC50 in LIT and RPMI-1640, read-out: GM (geometric mean of IC50 values) L. braziliensis.

As usually defined, the IC50 is the concentration at which inhibition is half-maximal. Broadly, the CC50 is the concentration that lowers cell viability or growth by half.

≈ marks a conversion by molar mass, not a printed value. Where two headings read alike, the source gives them in different places.

In the case of `COc1ccc2c(c1)OC(O)C(=O)N2` (stereo not shown) [HMBOA], the “Effect on levels of histamine released from rat mast cells” value in data set [1] is “able to reduce levels of histamine”.

Turning to `O=C1COc2ccccc2N1O` [Bex1], the half-maximal inhibitory concentration (IC50) was 174 ± 3.39 µg/mL (≈ 1050 µM) in data set [2] (setting [9]), 188 ± 3.58 µg/mL (≈ 1140 µM) in data set [2] (setting [10]), 212 ± 6.04 µg/mL (≈ 1280 µM) in data set [3] (setting [11]) and 238 ± 6.57 µg/mL (≈ 1440 µM) in data set [3] (setting [12]).

Compound `O=C1COc2cccnc2N1O` [Pyr1] yielded a CC50 at 48 h in data set [4] above 400 µg/mL. Further, the half-maximal inhibitory concentration (IC50) in data set [2] (setting [13]) was 101 µg/mL (≈ 608 µM); in data set [2] (setting [9]), 99 ± 5.61 µg/mL (≈ 596 µM); in data set [2] (setting [10]), 103 ± 5.64 µg/mL (≈ 620 µM); in data set [3] (setting [14]), 111 µg/mL (≈ 671 µM); in data set [3] (setting [11]), 108 ± 5.91 µg/mL (≈ 650 µM); in data set [3] (setting [12]), 115 ± 6.04 µg/mL (≈ 692 µM).

On to `CC1Oc2cccnc2N(O)C1=O` (stereo not shown) [Pyr2], for which the cytotoxic concentration (CC50) at 48 h in data set [4] was above 400 µg/mL. The IC50 in data set [2] (setting [13]) worked out at 115 µg/mL (≈ 638 µM); in data set [2] (setting [9]), 112 ± 5.34 µg/mL (≈ 622 µM); in data set [2] (setting [10]), 118 ± 5.45 µg/mL (≈ 655 µM); in data set [3] (setting [14]), 102 µg/mL (≈ 569 µM); in data set [3] (setting [11]), 100 ± 5.18 µg/mL (≈ 555 µM); in data set [3] (setting [12]), 105 ± 5.23 µg/mL (≈ 583 µM).

With `COc1ccc2[nH]c(=O)oc2c1` [MBOA, 6-methoxy-benzoxazolin-2-one], in data set [5], the “Inhibition of HIV reverse transcriptase” value is “able to inhibit”. Further, the “Effect on levels of histamine released from rat mast cells” value in data set [1] is listed as “able to reduce levels of histamine”.

As for `O=C1C(O)Oc2ccccc2N1O` (stereo not shown) [DIBOA, 2,4-dihydroxy-1,4-benzoxazin-3-one], the “Concentration exhibiting antibacterial effects” value in data set [6] is 500 µg/mL; in data set [7], 1,000 μg/mL; in data set [8], 500 µg/mL.

In turn, `CCC1Oc2ccccc2N(O)C1=O` (stereo not shown) [Bex3] came in with a CC50 at 48 h in data set [4] of 106 ± 2.26 µg/mL (≈ 547 µM). Further, the IC50 in data set [2] (setting [13]) amounted to 91 µg/mL (≈ 471 µM); in data set [2] (setting [9]), 89 ± 6.43 µg/mL (≈ 461 µM); in data set [2] (setting [10]), 93 ± 6.48 µg/mL (≈ 481 µM); in data set [3] (setting [14]) it was 94.5 µg/mL (≈ 489 µM); in data set [3] (setting [11]) it was 92 ± 6.19 µg/mL (≈ 476 µM); in data set [3] (setting [12]), 97 ± 6.24 µg/mL (≈ 502 µM).

Regarding `O=c1[nH]c2ccccc2o1` [BOA, benzoxazolin-2-one], the “Concentration exhibiting antibacterial effects” value in data set [6] was 500 µg/mL; in data set [7], 1,000 μg/mL; in data set [8], 500 µg/mL.

Values taken from article PMC6983991, “Toxicity and Anti-promastigote Activity of Benzoxazinoid Analogs Against Leishmania (Viannia) braziliensis and Leishmania (Leishmania) infantum” (Advanced Pharmaceutical Bulletin, 2019).
